Experimental data published in ChEMBL document CHEMBL5212743, “Selectivity Literature for EUbOPEN Chemogenomics Library wave 3” (2023).

What was measured:
[1] = molecular target: Mitogen-activated protein kinase 8 (Homo sapiens, UniProt P45983); experiment: Selectivity interaction (KinomeScan (DiscoverX, competition-binding assay)) EUB0000353a MAPK8
[2] = molecular target: Mitogen-activated protein kinase 10 (Homo sapiens, UniProt P53779); experiment: Selectivity interaction (KinomeScan (DiscoverX, competition-binding assay)) EUB0000353a MAPK10
Chain of Mitogen-activated protein kinase 10 (P53779 whole entry): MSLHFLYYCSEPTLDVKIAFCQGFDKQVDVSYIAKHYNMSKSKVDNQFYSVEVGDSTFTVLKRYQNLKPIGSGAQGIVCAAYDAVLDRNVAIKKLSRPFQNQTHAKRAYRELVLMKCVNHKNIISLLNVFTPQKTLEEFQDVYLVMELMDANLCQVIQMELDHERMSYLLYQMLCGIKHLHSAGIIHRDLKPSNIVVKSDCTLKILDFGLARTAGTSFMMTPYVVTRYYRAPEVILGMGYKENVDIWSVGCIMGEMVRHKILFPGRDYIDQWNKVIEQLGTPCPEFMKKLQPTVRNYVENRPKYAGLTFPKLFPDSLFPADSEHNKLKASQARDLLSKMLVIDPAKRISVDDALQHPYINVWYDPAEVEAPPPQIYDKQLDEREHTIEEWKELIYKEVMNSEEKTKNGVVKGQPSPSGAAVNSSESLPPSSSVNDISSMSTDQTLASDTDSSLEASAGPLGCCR

[3] = molecular target: Tyrosine-protein kinase BTK (Homo sapiens, UniProt Q06187); experiment: Selectivity interaction (KinomeScan (DiscoverX, competition-binding assay)) EUB0000353a BTK
Chain of Tyrosine-protein kinase BTK (Q06187 whole entry): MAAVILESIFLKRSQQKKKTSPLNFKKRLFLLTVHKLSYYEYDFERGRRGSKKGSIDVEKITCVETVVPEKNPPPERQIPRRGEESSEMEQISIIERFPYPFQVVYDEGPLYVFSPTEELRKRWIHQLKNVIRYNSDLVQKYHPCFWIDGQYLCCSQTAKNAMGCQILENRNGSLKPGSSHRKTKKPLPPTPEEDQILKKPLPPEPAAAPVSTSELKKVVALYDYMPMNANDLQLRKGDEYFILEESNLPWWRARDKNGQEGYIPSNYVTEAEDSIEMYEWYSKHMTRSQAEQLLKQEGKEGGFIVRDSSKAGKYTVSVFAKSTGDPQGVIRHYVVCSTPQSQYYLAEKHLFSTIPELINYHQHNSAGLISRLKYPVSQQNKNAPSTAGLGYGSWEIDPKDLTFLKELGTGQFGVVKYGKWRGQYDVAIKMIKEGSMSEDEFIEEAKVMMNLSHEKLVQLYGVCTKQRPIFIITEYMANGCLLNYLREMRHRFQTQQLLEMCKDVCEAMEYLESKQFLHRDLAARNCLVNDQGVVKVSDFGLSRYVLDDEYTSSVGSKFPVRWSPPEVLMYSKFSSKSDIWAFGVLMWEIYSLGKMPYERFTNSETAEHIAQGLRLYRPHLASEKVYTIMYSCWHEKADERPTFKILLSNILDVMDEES

[4] = molecular target: T1, Alpha-1A adrenergic receptor (Homo sapiens, UniProt P35348); experiment: Selectivity interaction (Binding assay) EUB0000341aCl ADRA1A
T1 sequence (P35348 whole entry): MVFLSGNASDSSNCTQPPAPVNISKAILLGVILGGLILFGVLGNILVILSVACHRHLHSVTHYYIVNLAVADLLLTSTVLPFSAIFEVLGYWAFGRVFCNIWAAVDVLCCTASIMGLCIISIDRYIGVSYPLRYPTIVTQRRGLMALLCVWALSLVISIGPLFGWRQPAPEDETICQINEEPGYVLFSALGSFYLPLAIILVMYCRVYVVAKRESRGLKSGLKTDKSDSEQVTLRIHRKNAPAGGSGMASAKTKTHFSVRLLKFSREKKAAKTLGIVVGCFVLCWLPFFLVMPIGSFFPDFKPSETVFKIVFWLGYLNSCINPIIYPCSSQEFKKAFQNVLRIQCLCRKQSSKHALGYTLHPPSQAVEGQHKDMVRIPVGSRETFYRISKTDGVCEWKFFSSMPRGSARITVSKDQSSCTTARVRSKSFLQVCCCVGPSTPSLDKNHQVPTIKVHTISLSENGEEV

[5] = molecular target: T2, Alpha-1B adrenergic receptor (Homo sapiens, UniProt P35368); experiment: Selectivity interaction (Binding assay) EUB0000341aCl ADRA1B
T2 sequence (P35368 whole entry): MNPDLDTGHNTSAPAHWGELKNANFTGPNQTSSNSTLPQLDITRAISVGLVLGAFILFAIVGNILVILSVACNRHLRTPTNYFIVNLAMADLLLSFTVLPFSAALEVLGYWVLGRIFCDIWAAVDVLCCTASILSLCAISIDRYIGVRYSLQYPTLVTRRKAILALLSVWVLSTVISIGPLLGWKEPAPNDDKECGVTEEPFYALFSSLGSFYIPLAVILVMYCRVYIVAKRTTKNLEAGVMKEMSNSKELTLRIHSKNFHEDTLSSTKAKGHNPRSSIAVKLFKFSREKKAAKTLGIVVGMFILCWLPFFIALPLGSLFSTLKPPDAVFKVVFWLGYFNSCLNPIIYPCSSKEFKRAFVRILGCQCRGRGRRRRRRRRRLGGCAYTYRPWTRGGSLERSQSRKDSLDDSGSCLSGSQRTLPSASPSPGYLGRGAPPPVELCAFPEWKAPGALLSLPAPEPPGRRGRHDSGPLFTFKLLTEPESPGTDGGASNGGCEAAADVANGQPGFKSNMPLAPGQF

[6] = molecular target: Dual specificity tyrosine-phosphorylation-regulated kinase 1B (Homo sapiens, UniProt Q9Y463); experiment: Selectivity interaction (KinomeScan (DiscoverX)) EUB0000341aCl DYRK1B; conditions: at 1 µM
Chain of Dual specificity tyrosine-phosphorylation-regulated kinase 1B (Q9Y463 whole entry, looked up): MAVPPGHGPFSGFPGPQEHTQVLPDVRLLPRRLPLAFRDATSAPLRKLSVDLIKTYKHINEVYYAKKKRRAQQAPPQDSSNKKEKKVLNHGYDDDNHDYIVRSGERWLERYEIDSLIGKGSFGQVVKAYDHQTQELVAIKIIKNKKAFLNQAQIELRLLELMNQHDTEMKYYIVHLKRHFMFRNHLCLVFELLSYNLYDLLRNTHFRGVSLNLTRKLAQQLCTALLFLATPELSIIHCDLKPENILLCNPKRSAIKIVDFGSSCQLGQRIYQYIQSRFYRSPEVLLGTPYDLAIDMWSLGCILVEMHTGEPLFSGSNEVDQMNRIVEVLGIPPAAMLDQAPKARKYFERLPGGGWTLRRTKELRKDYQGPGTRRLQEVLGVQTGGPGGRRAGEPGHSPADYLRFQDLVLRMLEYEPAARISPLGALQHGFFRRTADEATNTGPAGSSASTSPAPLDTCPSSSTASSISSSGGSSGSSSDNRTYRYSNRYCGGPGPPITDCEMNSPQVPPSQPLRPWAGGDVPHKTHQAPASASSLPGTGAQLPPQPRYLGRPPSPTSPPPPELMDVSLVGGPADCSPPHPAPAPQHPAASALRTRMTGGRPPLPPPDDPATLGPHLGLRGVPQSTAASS

[7] = tested on: Tyrosine-protein kinase ABL1 (Homo sapiens), P00519 [F317L]; experiment: (§1) Selectivity interaction (KinomeScan (DiscoverX)) EUB0000341aCl ABL1; conditions: at 1 µM
[8] = tested on: Tyrosine-protein kinase ABL1 (Homo sapiens), P00519 [M351T]; experiment: as §1; conditions: at 1 µM
[9] = tested on: Tyrosine-protein kinase ABL1 (Homo sapiens), P00519 [T315I]; experiment: as §1; conditions: at 1 µM
[10] = molecular target: NT-3 growth factor receptor (Homo sapiens, UniProt Q16288); experiment: Selectivity interaction (KinomeScan (DiscoverX)) EUB0000341aCl NTRK3; conditions: at 1 µM
Chain of NT-3 growth factor receptor (Q16288 32-839 limits assumed): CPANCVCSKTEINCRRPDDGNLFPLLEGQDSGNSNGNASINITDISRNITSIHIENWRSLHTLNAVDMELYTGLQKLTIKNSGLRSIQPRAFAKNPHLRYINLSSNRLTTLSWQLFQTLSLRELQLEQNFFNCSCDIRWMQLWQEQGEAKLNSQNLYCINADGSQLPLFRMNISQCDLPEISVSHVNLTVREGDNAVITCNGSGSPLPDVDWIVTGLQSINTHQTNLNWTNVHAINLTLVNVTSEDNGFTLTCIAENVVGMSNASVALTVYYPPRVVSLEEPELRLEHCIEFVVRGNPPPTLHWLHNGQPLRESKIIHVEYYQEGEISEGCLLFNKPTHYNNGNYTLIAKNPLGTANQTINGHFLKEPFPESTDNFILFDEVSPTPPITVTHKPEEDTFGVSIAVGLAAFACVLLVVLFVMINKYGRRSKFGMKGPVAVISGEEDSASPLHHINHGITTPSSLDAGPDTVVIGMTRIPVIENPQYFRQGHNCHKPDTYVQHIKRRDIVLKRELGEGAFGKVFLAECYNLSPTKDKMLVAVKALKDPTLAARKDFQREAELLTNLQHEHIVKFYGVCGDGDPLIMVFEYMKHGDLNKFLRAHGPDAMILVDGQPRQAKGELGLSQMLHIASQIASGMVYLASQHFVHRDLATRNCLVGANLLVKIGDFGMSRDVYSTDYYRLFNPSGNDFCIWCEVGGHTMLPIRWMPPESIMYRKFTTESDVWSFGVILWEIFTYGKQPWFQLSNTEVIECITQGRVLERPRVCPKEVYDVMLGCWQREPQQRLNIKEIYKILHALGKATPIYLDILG

[11] = molecular target: T3, Alpha-1A adrenergic receptor (Homo sapiens) (UniProt P35348); conditions: at 10 µM
T3 sequence (whole entry): T1 sequence (P35348 whole entry)

[12] = molecular target: Alpha-1D adrenergic receptor (Homo sapiens) (UniProt P25100); conditions: at 10 µM
Chain of Alpha-1D adrenergic receptor (Homo sapiens) (P25100 whole entry): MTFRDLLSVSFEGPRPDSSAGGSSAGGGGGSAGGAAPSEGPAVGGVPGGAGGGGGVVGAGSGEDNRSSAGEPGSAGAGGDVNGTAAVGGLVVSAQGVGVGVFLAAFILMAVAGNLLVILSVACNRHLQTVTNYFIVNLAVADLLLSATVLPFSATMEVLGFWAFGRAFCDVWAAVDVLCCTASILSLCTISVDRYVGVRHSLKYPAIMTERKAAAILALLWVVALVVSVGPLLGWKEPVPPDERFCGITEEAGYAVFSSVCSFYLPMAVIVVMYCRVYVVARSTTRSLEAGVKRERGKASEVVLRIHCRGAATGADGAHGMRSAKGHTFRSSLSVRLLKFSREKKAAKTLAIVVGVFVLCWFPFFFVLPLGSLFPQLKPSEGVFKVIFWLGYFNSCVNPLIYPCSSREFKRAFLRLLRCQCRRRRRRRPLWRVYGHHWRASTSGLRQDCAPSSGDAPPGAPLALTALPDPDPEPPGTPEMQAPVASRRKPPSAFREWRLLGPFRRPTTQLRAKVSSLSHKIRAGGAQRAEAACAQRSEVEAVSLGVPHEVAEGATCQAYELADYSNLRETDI

Chain of Mitogen-activated protein kinase 8 (P45983 whole entry): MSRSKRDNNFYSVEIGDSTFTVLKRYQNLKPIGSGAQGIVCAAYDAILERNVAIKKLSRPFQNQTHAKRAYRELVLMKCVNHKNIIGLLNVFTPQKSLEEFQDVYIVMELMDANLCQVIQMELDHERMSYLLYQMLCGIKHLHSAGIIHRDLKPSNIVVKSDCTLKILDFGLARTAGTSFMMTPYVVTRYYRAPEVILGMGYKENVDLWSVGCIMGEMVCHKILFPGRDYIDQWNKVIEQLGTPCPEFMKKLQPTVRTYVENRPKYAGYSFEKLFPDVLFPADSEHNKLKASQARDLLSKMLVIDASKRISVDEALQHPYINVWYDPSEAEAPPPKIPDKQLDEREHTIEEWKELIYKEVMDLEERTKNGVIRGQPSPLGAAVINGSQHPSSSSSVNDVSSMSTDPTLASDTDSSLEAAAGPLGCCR

Compound | Kd [1] | Kd [2] | Kd [3] | IC50 [4] | IC50 [5] | % of control [6] | % of control [7] | % of control [8] | % of control [9] | % of control [10] | % of inhibition [11] | % of inhibition [12]
CN(C)[C@@H]1CCN(c2cc(-c3ccccc3)nc3ccnn23)C1 [(R)-ZINC-3573] | 19 µM | > 30 µM | 27 µM |  |  |  |  |  |  |  |  | 
C[C@@H](c1cccc(C#N)c1)n1cc(Cl)cc(C(N)=O)c1=N |  |  |  | 2.7 µM | 1.2 µM | 37% | 0% | 0% | 0% | 0% | 55% | 61%
